Assay results reported in ChEMBL document CHEMBL3774358 (Eur J Med Chem, 2016).
pIC50: −log10 of the molar value.

Tests used:
[1] = molecular target: Actin nucleation-promoting factor WASL (Rattus norvegicus, UniProt O08816); experiment: Inhibition of full-length rat N-WASP-induced Arp2/3 activation by fluorescence assay
[2] = Inhibition of GFP-tagged Xenopus laevis kinesin-5 microtubule gliding velocity by fluorescence assay

Actin nucleation-promoting factor WASL, sequence (O08816 whole entry): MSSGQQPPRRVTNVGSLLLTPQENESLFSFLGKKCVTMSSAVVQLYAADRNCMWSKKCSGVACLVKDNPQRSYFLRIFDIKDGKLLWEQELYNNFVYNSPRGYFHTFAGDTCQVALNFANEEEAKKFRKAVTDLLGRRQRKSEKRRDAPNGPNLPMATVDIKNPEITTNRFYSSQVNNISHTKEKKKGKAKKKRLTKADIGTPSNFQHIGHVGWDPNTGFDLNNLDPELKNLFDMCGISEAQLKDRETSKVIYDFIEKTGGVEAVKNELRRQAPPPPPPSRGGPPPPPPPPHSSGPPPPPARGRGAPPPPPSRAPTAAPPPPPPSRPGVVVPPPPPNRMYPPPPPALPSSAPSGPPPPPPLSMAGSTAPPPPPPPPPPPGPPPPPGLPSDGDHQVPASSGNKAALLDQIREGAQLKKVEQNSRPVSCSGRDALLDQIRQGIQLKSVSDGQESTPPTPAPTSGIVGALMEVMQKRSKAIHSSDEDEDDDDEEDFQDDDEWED

pIC50 [1] | pIC50 [2] | SMILES
5.46 | – | CN(C)C[C@@H](O)Cn1c2ccc(Br)cc2c2cc(Br)ccc21
– | 4.85 | CCOC(=O)C1=C(C)NC(=S)NC1c1cccc(O)c1 (stereo not drawn) [MONASTROL]
5.36 | – | CN(C)C[C@H](O)Cn1c2ccc(Br)cc2c2cc(Br)ccc21 [WISKOSTATIN]
